The values that follow come from patent publication US4758574A, “2-phenylimidazio (4,5-c) pyridines” (Eli Lilly and Company, priority 1986, dated 1988).

Where a name gives a salt, the structure may show the parent alone. Read-outs that look alike come from different tables or passages of the source.

For one test, the system named is Cat Papillary Muscles. The test is described as follows: Positive Inotropic Activity in Isolated Cat Papillary Muscles. The note with it: Felis catus, control = 100 percent, read-out: Contractility of Papillary Muscle (peak response); for activity at 100 µM: Drug Concentration 10^-4 M; for activity at 10 µM: Drug Concentration 10^-5 M. Type of test: cell-based. On the procedure:
Positive Inotropic Activity in Isolated Cat Papillary Muscles […] A platinum hook secured one end of the muscle to an electrode mounted in the bottom of the bath, and a silk thread attached the tendon to a Statham isometric transducer. The baths contained Krebs-Henseleit solution (36° C., bubbled with 95 percent oxygen--5 percent carbon dioxide) of the following millimolar composition: NaCl, 118; KCl, 4.5; CaCl2, 2.5; KH2 PO4, 1.1; MgSO4, 1.2; NaHCO3, 25; and glucose, 11. A base-line tension of 1.5 g. was applied to each muscle. Square-wave pulses (5.0 msec. in duration, three times threshold voltage) delivered through the hook electrode and a second electrode positioned near the top of the muscle evoked 12 contractions/minute, which were recorded on a Grass polygraph. After the muscles had equilibrated for 60 minutes, the recorder gain was adjusted so that the pen deflected 10 mm. The drug was introduced in a solution of normal saline in an amount to bring the final concentration of the drug to 10^-5 or 10^-4 molar. Increases in contractility were tabulated as millimeters of pen deflection in excess of the baseline value. In each experiment the maximum contractility was measured. Test results are summarized in Table I and are expressed as percent of control (control=100 percent). Values are the average of results from 2 to 8 muscles.

Test [1] deals with Ventricular Contractility in the Anesthetized Dog. In words: Ventricular Contractility in the Anesthetized Dog. The note with it: Canis lupus familiaris, iv, i.v. bolus, read-out: ED50 (dose required to produce a peak increase in contractility of 50%). It counts as in vivo, Mongrel dogs. As to the method:
Experiments in Anesthetized Dogs Mongrel dogs of either sex ranging in weight from 7 to 14 kg. wer used. Anesthesia was induced with sodium pentobarbital (30 mg./kg., i.v.) and maintained with supplemental doses as required. A positive-pressure pump was used to ventilate the dogs through an endotracheal tube (18 strokes/minute, 20 ml./kg. stroke^-1), and a heating pad kept the body temperature at 37°-38° C. Femoral arterial blood pressure was measured through a polyethylene catheter filled with heparin solution (16 units/ml.) and connected to a Statham pressure transducer. A strain-gauge arch sutured to the right ventricle of the heart measured cardiac contractility. Tension on the gauge was adjusted to 50 g. and the gain of the recorder (Beckman dynograph) was set so that 50 g. caused a 10-mm. pen deflection; cardiac contractile tension was measured as millimeters of pen deflection or grams of tension. The drug was administered following a 30-45 minute equilibrium period as an i.v. bolus (2-5 ml.) in a normal saline vehicle. […] The maximum effects on contractility at various dose levels were determined and plotted and the dose required to produce a 50% increase in contractility (ED50) was determined by interpolation.

Test [2] concerns SRS-A release, guinea pig lung. In words: Inhibition of SRS-A (Slow-Reacting Substance of Anaphylaxis) From Guinea Pig Lung. Type of test: cell-based. The conditions noted are these: Cavia porcellus, sensitized guinea pig lung, ovalbumin antigen, read-out: percent inhibition of SRS-A release. On the procedure:
Inhibition of SRS-A (Slow-Reacting Substance of Anaphylaxis) From Guinea Pig Lung
Male, Hartley guinea pigs, usually 1-2 weeks old, were sensitized with respect to ovalbumin by intraperitoneal administration of 0.15 ml. hyperimmune serum obtained from guinea pigs actively sensitized against ovalbumin. After 2 days or more, the animals were decapitated, lungs were excised and perfused through the pulmonary artery with Krebs' bicarbonate solution of the following composition in mmoles/liter: KCl, 4.6; CaCl2.2 H2 O, 1.8; KH2 PO4, 1.2; MgSO4.7H2 O, 1.2; NaCl, 118.2; NaHCO3, 24.8; and dextrose, 10.0. Poorly perfused and bloody areas were discarded. Normal lung was cut into 1 mm. cubes with a McIlwain tissue chopper, washed with Krebs' solution and divided into 400 mg. aliquots. The fragmented tissue was then incubated at 37° C. for 15 minutes in Krebs' solution containing indomethacin to optimize SRS-A release and an appropriate concentration of experimental drug. Antigen (ovalbumin) was then added to make a final concentration of 1×10^-5 g./ml. Fifteen minutes later, the incubation medium was decanted and centrifuged at 3,000×g at 4° C. for 5 minutes. […] Release of SRS-A in the presence of the experimental drug was compared to a control sample and the results expressed as percent inhibition of SRS-A release.

One may read the ED50 as the dose that gives a 50% effect, or the effect in half of the subjects. Regarding `Cc1cccc(-c2nc3cnccc3[nH]2)c1` [Example 2, 2-(3-Methylphenyl)imidazo[4,5-c]pyridine], in the test with Cat Papillary Muscles, the activity at 100 µM amounted to 181% and the activity at 10 µM stood at 116%. Also, the median effective dose (ED50) in test [1] turned out to be 1 mg/kg.
For `CS(=O)(=O)c1ccc(-c2nc3cnccc3[nH]2)cc1` [Example 4, 2-(4-Methylsulfonylphenyl)imidazo[4,5-c]pyridine hydrochloride], in that order: 139%, 117% and 7.5 mg/kg.
With `c1ccc(-c2nc3cnccc3[nH]2)cc1` [Example 7, 2-Phenylimidazo[4,5-c]pyridine], in the test on Cat Papillary Muscles, the activity at 100 µM stood at 192% and the activity at 10 µM came to 107%. Also, in test [1] (tested as the hydrochloride salt), the ED50 was 2.5 mg/kg.
The term inhibition denotes the relative decrease from the control value, in per cent. For the compound `COc1ccc(-c2nc3cnccc3[nH]2)c(OC)c1` [Example 8, 2-(2,4-Dimethoxyphenyl)imidazo[4,5-c]pyridine hydrochloride], in the test with Cat Papillary Muscles, the activity at 100 µM is 172% and the activity at 10 µM came out at 158%. For the same compound, the 50% effective dose (ED50) in test [1] was 0.27 mg/kg. Besides, the inhibition at 100 µM in test [2] (1×10^-4 M) is 45.1%. Further, the inhibition at 10 µM in test [2] (1×10^-5 M) came to 19.4%.
As for `CSc1ccc(-c2nc3cnccc3[nH]2)cc1.Cl` [Example 9, 2-(4-methylmercaptophenyl)imidazo[4,5-c]pyridine hydrochloride], in the test with Cat Papillary Muscles, the activity at 100 µM came out at 205% and the activity at 10 µM came out at 113%. Besides, in test [1], the 50% effective dose (ED50) turned out to be 4 mg/kg.
The matching figures for `CCOc1ccc(-c2nc3cnccc3[nH]2)cc1.Cl` [Example 13, 2-(4-ethoxyphenyl)imidazo[4,5-c]pyridine hydrochloride]: 157%, 104% and 2.5 mg/kg.
The matching figures for `COc1ccc(-c2nc3cnccc3[nH]2)cc1.Cl` [Example 15, 2-(4-methoxyphenyl)imidazo[4,5-c]pyridine hydrochloride]: 204%, 104% and 1.7 mg/kg.
The matching figures for `COc1cc(SC)ccc1-c1nc2cnccc2[nH]1.Cl` [Example 23, 2-(2-methoxy-4-methylmercaptophenyl)imidazo[4,5-c]pyridine hydrochloride]: 142%, 141% and 0.21 mg/kg.
For the compound `Cc1ccc(-c2nc3cnccc3[nH]2)c(C)c1` [Example 24, 2-(2,4-dimethylphenyl)imidazo[4,5-c]pyridine hydrochloride], in the test on Cat Papillary Muscles, the activity at 100 µM worked out at 94% and the activity at 10 µM stood at 87%. Besides, in test [1], the ED50 was determined as 1.4 mg/kg.
The matching figures for `Cc1ccccc1-c1nc2cnccc2[nH]1` [Example 26, 2-(2-methylphenyl)imidazo[4,5-c]pyridine hydrochloride]: 188%, 106% and 2.2 mg/kg.
The matching figures for `COc1cc([S+](C)[O-])ccc1-c1nc2cnccc2[nH]1` (stereo not drawn) [Example 27, 2-(2-methoxy-4-methylsulfinylphenyl)imidazo[4,5-c]pyridine]: 200%, 245% and 0.03 mg/kg.
The matching figures for `CCCOc1cc(OC)ccc1-c1nc2cnccc2[nH]1` [Example 29, 2-(2-n-propoxy-4-methoxyphenyl)imidazo[4,5-c]pyridine]: 335%, 134% and 1.3 mg/kg.
With `COc1ccc(-c2nc3cnccc3[nH]2)c(OCCSC)c1` [Example 39, 2-[2-(β-methylmercaptoethoxy)-4-methoxyphenyl]imidazo[4,5-c]pyridine], in the test on Cat Papillary Muscles, the activity at 100 µM was determined as 140% and the activity at 10 µM worked out at 118%. Also, the 50% effective dose (ED50) in test [1] was 1.1 mg/kg.
For the compound `CCCOc1cc(SC)ccc1-c1nc2cnccc2[nH]1` [Example 43, 2-(2-n-propoxy-4-methylmercaptophenyl)imidazo[4,5-c]pyridine], the 50% effective dose (ED50) in test [1] was determined as 2.2 mg/kg.
Regarding `CCSCCOc1cc(OC)ccc1-c1nc2cnccc2[nH]1.Cl` [Example 45, 2-[2-(β-ethylmercaptoethoxy)-4-methoxyphenyl]imidazo[4,5-c]pyridine h ydrochloride], in the test with Cat Papillary Muscles, the activity at 100 µM was determined as 125% and the activity at 10 µM worked out at 122%. Besides, the ED50 in test [1] was 1 mg/kg.
`Clc1ccc(-c2nc3cnccc3[nH]2)c(Cl)c1` [Example 47, 2-(2,4-dichlorophenyl)imidazo[4,5-c]pyridine]: in the test on Cat Papillary Muscles, the activity at 100 µM was 157% and the activity at 10 µM turned out to be 105%. Besides, the 50% effective dose (ED50) in test [1] was 0.67 mg/kg.
Consider `COc1cc(S(C)(=O)=O)ccc1-c1nc2cnccc2[nH]1` [Example 50, 2-(2-methoxy-4-methylsulfonylphenyl)imidazo[4,5-c]pyridine], for which, in the test with Cat Papillary Muscles, the activity at 100 µM amounted to 221% and the activity at 10 µM turned out to be 176%. Also, the 50% effective dose (ED50) in test [1] amounted to 0.02 mg/kg.
The matching figures for `COc1ccc(-c2nc3cnccc3[nH]2)c(OCC[S+](C)[O-])c1` (stereo not drawn) [Example 52, 2-[2-(β-methylsulfinylethoxy)-4-methoxyphenyl]imidazo[4,5-c]pyridine]: 185%, 122% and 5.2 mg/kg.
For `CCCOc1cc([S+](C)[O-])ccc1-c1nc2cnccc2[nH]1` (stereo not drawn) [Example 54, 2-(2-n-propoxy-4-methylsulfinylphenyl)imidazo[4,5-c]pyridine], in that order: 159%, 122% and 1 mg/kg.
`COc1ccc(-c2nc3cnccc3[nH]2)cc1OC.Cl` [Example 56, 2-(3,4-dimethoxyphenyl)imidazo[4,5-c]pyridine hydrochloride]: in the test with Cat Papillary Muscles, the activity at 100 µM stood at 252% and the activity at 10 µM worked out at 163%. Besides, the ED50 in test [1] worked out at 0.38 mg/kg.
The matching figures for `COc1cc(C(F)(F)F)ccc1-c1nc2cnccc2[nH]1.Cl` [Example 59, 2-(2-Methoxy-4-trifluoromethylphenyl)imidazo[4,5-c]pyridine hydrochloride]: 134%, 139% and 0.005 mg/kg.
The matching figures for `COc1cc([N+](=O)[O-])ccc1-c1nc2cnccc2[nH]1` [Example 60, 2-(2-Methoxy-4-nitrophenyl)imidazo[4,5-c]pyridine]: 145%, 142% and 0.015 mg/kg.
